According to patent publication US20020137929A1, “1 - (3-heterocyclylphenyl) isothiourea, -isourea, -guanidine and -amidine herbicidal agents” (Intellectual Property Department, BASF Aktiengesellschaft, priority 1998, published 2002):

Columns and labels:
[1] = test system: AMBEL (Ragweed, Common); experiment: Preemergence herbicidal evaluation; type: in vivo, Ambrosia artemisifolia; conditions: rated 4-5 weeks after treatment
Outline: (§1)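 Sown cups got a single aqueous acetone spray of test compound (roughly 0.0156–0.500 kg/ha) before seedlings emerged. Evaluation, 4–5 weeks on, used a 0–9 visual scale covering plant stand, vigor, size, malformation, chlorosis and general appearance compared with controls.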

[2] = test system: GLXMAW (Soybean, Williams); experiment: Postemergence herbicidal evaluation; type: in vivo, Glycine max, (L.) Merr. cv Williams; conditions: postemergence
Outline: (§2)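 Visual 0–9 rating versus control (stand, vigor, malformation, size, chlorosis, overall appearance), taken four to five weeks post-spray. Two-week-old seedlings received roughly 0.0156–0.500 kg/ha active in acetone/water (50/50) with 0.5% TWEEN 20 via nozzle at 40 psi.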

[3] = test system: ZEAMX (Corn, Field); experiment: Postemergence herbicidal evaluation; type: in vivo, Zea mays; conditions: postemergence
Outline: as §2

[4] = test system: AMBEL (Ragweed, Common); experiment: Postemergence herbicidal evaluation; type: in vivo, Ambrosia artemisifolia; conditions: postemergence
Outline: as §2

[5] = test system: ORYSAT (Rice, Tebonnet); experiment: Postemergence herbicidal evaluation; type: in vivo, Oryza sativa, (L.) Tebonnet; conditions: postemergence
Outline: as §2

[6] = test system: GALAP (Galium); experiment: Preemergence herbicidal evaluation; type: in vivo, Galium aparine; conditions: rated 4-5 weeks after treatment
Outline: as §1

[7] = test system: CHEAL (Lambsquarters, Common); experiment: Postemergence herbicidal evaluation; type: in vivo, Chenopodium album; conditions: postemergence
Outline: as §2

[8] = test system: ABUTH (Velvetleaf); experiment: Postemergence herbicidal evaluation; type: in vivo, Abutilon theophrasti; conditions: postemergence
Outline: as §2

[9] = test system: ECHCG (Barnyardgrass); experiment: Postemergence herbicidal evaluation; type: in vivo, Echinochloa crus-galli; conditions: postemergence
Outline: as §2

[10] = test system: CYPSE (Flatsedge); experiment: Preemergence weed control under flooded paddy conditions; type: in vivo, Cyperus serotinus; conditions: rated 3-4 weeks after treatment
Outline: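 Seeds or propagules sown in silt loam kept flooded 1.5-3 cm; compounds in 50/50 acetone/water pipetted into flood water at about 0.0313 to 0.500 kg/ha. Greenhouse; visual 0-9 rating versus untreated control 3-4 weeks after treatment.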

[11] = test system: CASOB (Sicklepod); experiment: Preemergence herbicidal evaluation; type: in vivo, Cassia obtusifolia; conditions: rated 4-5 weeks after treatment
Outline: as §1

[12] = test system: CHEAL (Lambsquarters, Common); experiment: Preemergence herbicidal evaluation; type: in vivo, Chenopodium album; conditions: rated 4-5 weeks after treatment
Outline: as §1

[13] = rate 0.0156 kg/ha, rating scale 0-9
[14] = rate 0.0313 kg/ha, rating scale 0-9
[15] = rate 0.0625 kg/ha, rating scale 0-9
[16] = rate 0.1250 kg/ha, rating scale 0-9
[17] = rate 0.2500 kg/ha, rating scale 0-9

Compound: CCOC(=O)CN1C(=O)C(C(=O)OC(C)(C)C)SC1=Nc1cc(-n2c(=O)cc(C(F)(F)F)n(C)c2=O)c(F)cc1Cl (centres unmarked) [Compound 167, 5-Carboxy-2-{{2-chloro-5-[3,6-dihydro-3-methyl-2,6-dioxo-4-(trifluoromethyl)-1(2H)-pyrimidinyl]-4-fluorophenyl}imino}-4-oxo-3-thiazolidineacetic acid, 5-tert-butyl ethyl ester]
- Preemergence herbicidal rating AMBEL ([1]; 0.0156 kg/ha): 1.0
- Preemergence herbicidal rating AMBEL ([1]; 0.0313 kg/ha): 0.0
- Preemergence herbicidal rating AMBEL ([1]; 0.0625 kg/ha): 7.0
- Preemergence herbicidal rating AMBEL ([1]; 0.1250 kg/ha): 6.0
- Preemergence herbicidal rating AMBEL ([1]; 0.2500 kg/ha): 7.0
- Preemergence herbicidal rating AMBEL ([1]; 0.5000 kg/ha): 8.0
- Herbicidal rating GLXMAW ([2]; rate 0.0156 kg/ha): 5.0
- Herbicidal rating GLXMAW ([2]; rate 0.0313 kg/ha): 6.0
- Herbicidal rating GLXMAW ([2]; rate 0.0625 kg/ha): 6.5
- Herbicidal rating GLXMAW ([2]; rate 0.1250 kg/ha): 6.5
- Herbicidal rating ZEAMX ([3]; rate 0.0156 kg/ha): 4.5
- Herbicidal rating ZEAMX ([3]; rate 0.0313 kg/ha): 5.5
- Herbicidal rating ZEAMX ([3]; rate 0.0625 kg/ha): 5.5
- Herbicidal rating ZEAMX ([3]; rate 0.1250 kg/ha): 5.5
- Herbicidal rating AMBEL ([4]; rate 0.0156 kg/ha): 4.0
- Herbicidal rating AMBEL ([4]; rate 0.0313 kg/ha): 7.0
- Herbicidal rating AMBEL ([4]; rate 0.0625 kg/ha): 9.0
- Herbicidal rating AMBEL ([4]; rate 0.1250 kg/ha): 7.0
- Herbicidal rating ORYSAT ([5]; rate 0.0156 kg/ha): 3.0
- Herbicidal rating ORYSAT ([5]; rate 0.0313 kg/ha): 3.5
- Herbicidal rating ORYSAT ([5]; rate 0.0625 kg/ha): 3.5
- Herbicidal rating ORYSAT ([5]; rate 0.1250 kg/ha): 4.0
- Preemergence herbicidal rating GALAP ([6]; 0.0156 kg/ha): 1.0
- Preemergence herbicidal rating GALAP ([6]; 0.0313 kg/ha): 5.0
- Preemergence herbicidal rating GALAP ([6]; 0.0625 kg/ha): 7.0
- Preemergence herbicidal rating GALAP ([6]; 0.1250 kg/ha): 9.0
- Preemergence herbicidal rating GALAP ([6]; 0.2500 kg/ha): 6.0
- Preemergence herbicidal rating GALAP ([6]; 0.5000 kg/ha): 7.0
- Herbicidal rating CHEAL ([7]; rate 0.0156 kg/ha): 4.0
- Herbicidal rating CHEAL ([7]; rate 0.0313 kg/ha): 7.0
- Herbicidal rating CHEAL ([7]; rate 0.0625 kg/ha): 9.0
- Herbicidal rating CHEAL ([7]; rate 0.1250 kg/ha): 9.0
- Herbicidal rating ABUTH ([8]; rate 0.0156 kg/ha): 9.0
- Herbicidal rating ABUTH ([8]; rate 0.0313 kg/ha): 9.0
- Herbicidal rating ABUTH ([8]; rate 0.0625 kg/ha): 9.0
- Herbicidal rating ABUTH ([8]; rate 0.1250 kg/ha): 9.0
- Herbicidal rating ECHCG ([9]; rate 0.0156 kg/ha): 3.0
- Herbicidal rating ECHCG ([9]; rate 0.0313 kg/ha): 3.0
- Herbicidal rating ECHCG ([9]; rate 0.0625 kg/ha): 3.0
- Herbicidal rating ECHCG ([9]; rate 0.1250 kg/ha): 3.0
- herbicidal effect rating, CYPSE ([10]; 0.0313 kg/ha): 0.0
- herbicidal effect rating, CYPSE ([10]; 0.0625 kg/ha): 0.0
- herbicidal effect rating, CYPSE ([10]; 0.1250 kg/ha): 3.0
- herbicidal effect rating, CYPSE ([10]; 0.2500 kg/ha): 5.0
- Preemergence herbicidal rating CASOB ([11]; 0.0156 kg/ha): 0.0
- Preemergence herbicidal rating CASOB ([11]; 0.0313 kg/ha): 0.0
- Preemergence herbicidal rating CASOB ([11]; 0.0625 kg/ha): 1.0
- Preemergence herbicidal rating CASOB ([11]; 0.1250 kg/ha): 1.0
- Preemergence herbicidal rating CASOB ([11]; 0.2500 kg/ha): 4.0
- Preemergence herbicidal rating CASOB ([11]; 0.5000 kg/ha): 9.0
- Preemergence herbicidal rating CHEAL ([12]; 0.0156 kg/ha): 7.0
- Preemergence herbicidal rating CHEAL ([12]; 0.0313 kg/ha): 7.0
- Preemergence herbicidal rating CHEAL ([12]; 0.0625 kg/ha): 9.0
- Preemergence herbicidal rating CHEAL ([12]; 0.1250 kg/ha): 9.0
- Preemergence herbicidal rating CHEAL ([12]; 0.2500 kg/ha): 9.0
- Preemergence herbicidal rating CHEAL ([12]; 0.5000 kg/ha): 9.0

Compound: CN(C)c1ccc(CN2C(=O)CSC2=Nc2cc(-n3c(=O)cc(C(F)(F)F)n(C)c3=O)c(F)cc2Cl)cc1 [Compound 138, 3-{4-Chloro-5-{{3-[p-(dimethylamino)benzyl]-4-oxo-2-thiazolidinylidene}amino}-2-fluorophenyl}-1-methyl-6-(trifluoromethyl)-2,4(1H,3H)-pyrimidinedione]
- Preemergence herbicidal rating AMBEL [1, 13]: 0.0
- Preemergence herbicidal rating AMBEL [1, 14]: 0.0
- Preemergence herbicidal rating AMBEL [1, 15]: 0.0
- Preemergence herbicidal rating AMBEL [1, 16]: 1.0
- Preemergence herbicidal rating AMBEL [1, 17]: 2.0
- Herbicidal rating GLXMAW ([2]; rate 0.0156 kg/ha): 5.0
- Herbicidal rating GLXMAW ([2]; rate 0.0313 kg/ha): 6.0
- Herbicidal rating GLXMAW ([2]; rate 0.0625 kg/ha): 6.5
- Herbicidal rating ZEAMX ([3]; rate 0.0156 kg/ha): 4.0
- Herbicidal rating ZEAMX ([3]; rate 0.0313 kg/ha): 4.5
- Herbicidal rating ZEAMX ([3]; rate 0.0625 kg/ha): 5.0
- Herbicidal rating AMBEL ([4]; rate 0.0156 kg/ha): 9.0
- Herbicidal rating AMBEL ([4]; rate 0.0313 kg/ha): 9.0
- Herbicidal rating AMBEL ([4]; rate 0.0625 kg/ha): 9.0
- Herbicidal rating ORYSAT ([5]; rate 0.0156 kg/ha): 1.5
- Herbicidal rating ORYSAT ([5]; rate 0.0313 kg/ha): 2.5
- Herbicidal rating ORYSAT ([5]; rate 0.0625 kg/ha): 3.0
- Preemergence herbicidal rating GALAP [6, 13]: 0.0
- Preemergence herbicidal rating GALAP [6, 14]: 0.0
- Preemergence herbicidal rating GALAP [6, 15]: 0.0
- Preemergence herbicidal rating GALAP [6, 16]: 0.0
- Preemergence herbicidal rating GALAP [6, 17]: 4.0
- Herbicidal rating CHEAL ([7]; rate 0.0156 kg/ha): 9.0
- Herbicidal rating CHEAL ([7]; rate 0.0313 kg/ha): 9.0
- Herbicidal rating CHEAL ([7]; rate 0.0625 kg/ha): 9.0
- Herbicidal rating ABUTH ([8]; rate 0.0156 kg/ha): 9.0
- Herbicidal rating ABUTH ([8]; rate 0.0313 kg/ha): 9.0
- Herbicidal rating ABUTH ([8]; rate 0.0625 kg/ha): 9.0
- Herbicidal rating ECHCG ([9]; rate 0.0156 kg/ha): 1.0
- Herbicidal rating ECHCG ([9]; rate 0.0313 kg/ha): 1.0
- Herbicidal rating ECHCG ([9]; rate 0.0625 kg/ha): 2.0
- herbicidal effect rating, CYPSE ([10]; 0.0313 kg/ha): 0.0
- herbicidal effect rating, CYPSE ([10]; 0.0625 kg/ha): 0.0
- herbicidal effect rating, CYPSE ([10]; 0.1250 kg/ha): 0.0
- herbicidal effect rating, CYPSE ([10]; 0.2500 kg/ha): 0.0
- Preemergence herbicidal rating CASOB [11, 13]: 0.0
- Preemergence herbicidal rating CASOB [11, 14]: 0.0
- Preemergence herbicidal rating CASOB [11, 15]: 0.0
- Preemergence herbicidal rating CASOB [11, 16]: 0.0
- Preemergence herbicidal rating CASOB [11, 17]: 0.0
- Preemergence herbicidal rating CHEAL [12, 13]: 1.0
- Preemergence herbicidal rating CHEAL [12, 14]: 9.0
- Preemergence herbicidal rating CHEAL [12, 15]: 7.0
- Preemergence herbicidal rating CHEAL [12, 16]: 9.0
- Preemergence herbicidal rating CHEAL [12, 17]: 9.0
